{
  "source": "paper PMC11868595",
  "about": "“Safety, pharmacokinetics and efficacy of HA121-28 in patients with advanced solid tumors and RET fusion-positive non-small-cell lung cancer: a multicenter, open-label, single-arm phase 1/2 trial” (Signal Transduction and Targeted Therapy, 2025)",
  "key": {"[1]": {"experiment": "Safety pharmacology: respiratory function and neurological behavior", "format": "in vivo, rats", "details": "single oral dose 30, 100, and 300 mg/kg"}, "FGFR1-3": {"tested_on": "FGFR1-3", "format": "biochemical"}, "[2]": {"experiment": "28-day repeated dose toxicity", "format": "in vivo, SD rats"}, "Metabolites in plasma": {"experiment": "Metabolites in plasma", "details": "monkeys"}, "FGFR4": {"target": "FGFR4 (Homo sapiens, UniProt P22455)", "sequence (P22455 22-802)": "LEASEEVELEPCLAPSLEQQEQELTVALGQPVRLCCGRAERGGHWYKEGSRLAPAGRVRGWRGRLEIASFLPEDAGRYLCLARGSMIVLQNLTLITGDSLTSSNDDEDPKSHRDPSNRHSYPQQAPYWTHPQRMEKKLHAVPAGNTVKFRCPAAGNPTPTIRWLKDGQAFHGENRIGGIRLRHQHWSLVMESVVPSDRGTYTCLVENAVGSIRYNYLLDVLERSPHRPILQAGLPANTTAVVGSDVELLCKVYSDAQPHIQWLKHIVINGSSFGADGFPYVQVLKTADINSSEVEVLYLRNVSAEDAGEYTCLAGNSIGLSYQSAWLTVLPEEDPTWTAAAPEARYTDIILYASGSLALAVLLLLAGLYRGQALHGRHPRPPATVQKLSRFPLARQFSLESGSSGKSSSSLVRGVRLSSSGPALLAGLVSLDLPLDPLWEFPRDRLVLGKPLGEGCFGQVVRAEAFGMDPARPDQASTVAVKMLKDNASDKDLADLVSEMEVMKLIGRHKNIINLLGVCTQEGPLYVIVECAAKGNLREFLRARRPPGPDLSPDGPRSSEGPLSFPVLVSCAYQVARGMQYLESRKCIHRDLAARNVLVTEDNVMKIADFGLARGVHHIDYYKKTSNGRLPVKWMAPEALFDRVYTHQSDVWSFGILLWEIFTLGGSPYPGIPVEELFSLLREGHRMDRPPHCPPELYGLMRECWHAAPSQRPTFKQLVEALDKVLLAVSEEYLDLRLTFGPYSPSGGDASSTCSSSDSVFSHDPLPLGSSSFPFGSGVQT", "experiment": "Tyrosine kinase inhibition", "format": "biochemical"}, "BLK": {"target": "BLK (Homo sapiens, UniProt P51451)", "sequence (P51451 whole entry)": "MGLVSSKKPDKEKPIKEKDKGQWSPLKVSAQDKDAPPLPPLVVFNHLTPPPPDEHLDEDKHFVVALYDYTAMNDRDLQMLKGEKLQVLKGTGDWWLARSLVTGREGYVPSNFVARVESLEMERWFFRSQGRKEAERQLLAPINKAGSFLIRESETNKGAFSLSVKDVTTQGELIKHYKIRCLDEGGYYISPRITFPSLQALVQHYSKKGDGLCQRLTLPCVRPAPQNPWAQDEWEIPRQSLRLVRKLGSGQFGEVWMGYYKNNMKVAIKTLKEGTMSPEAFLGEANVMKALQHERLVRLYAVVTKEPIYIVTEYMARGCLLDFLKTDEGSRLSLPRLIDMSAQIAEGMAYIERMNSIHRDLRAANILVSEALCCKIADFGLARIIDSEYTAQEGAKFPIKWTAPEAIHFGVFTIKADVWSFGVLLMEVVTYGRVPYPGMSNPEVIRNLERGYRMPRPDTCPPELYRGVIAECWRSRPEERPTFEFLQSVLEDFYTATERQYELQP", "experiment": "Tyrosine kinase inhibition", "format": "biochemical"}, "[3]": {"experiment": "Tissue distribution in rats", "format": "in vivo", "details": "for time of distribution peak: intragastric"}, "matrigel angiogenesis": {"tested_on": "matrigel angiogenesis", "format": "in vivo, mouse", "details": "induced by VEGF and FGF"}, "A431 cells": {"tested_on": "A431 cells", "experiment": "Tumor cell proliferation in vitro", "format": "cell-based, human", "details": "A431; read-out: IC50, proliferation"}, "A498 cells": {"tested_on": "A498 cells", "experiment": "Tumor cell proliferation in vitro", "format": "cell-based"}, "A375 cells": {"tested_on": "A375 cells", "experiment": "Tumor cell proliferation in vitro", "format": "cell-based, human"}, "FLT-1": {"target": "FLT-1 (Homo sapiens, UniProt P17948)", "sequence (P17948 27-1338)": "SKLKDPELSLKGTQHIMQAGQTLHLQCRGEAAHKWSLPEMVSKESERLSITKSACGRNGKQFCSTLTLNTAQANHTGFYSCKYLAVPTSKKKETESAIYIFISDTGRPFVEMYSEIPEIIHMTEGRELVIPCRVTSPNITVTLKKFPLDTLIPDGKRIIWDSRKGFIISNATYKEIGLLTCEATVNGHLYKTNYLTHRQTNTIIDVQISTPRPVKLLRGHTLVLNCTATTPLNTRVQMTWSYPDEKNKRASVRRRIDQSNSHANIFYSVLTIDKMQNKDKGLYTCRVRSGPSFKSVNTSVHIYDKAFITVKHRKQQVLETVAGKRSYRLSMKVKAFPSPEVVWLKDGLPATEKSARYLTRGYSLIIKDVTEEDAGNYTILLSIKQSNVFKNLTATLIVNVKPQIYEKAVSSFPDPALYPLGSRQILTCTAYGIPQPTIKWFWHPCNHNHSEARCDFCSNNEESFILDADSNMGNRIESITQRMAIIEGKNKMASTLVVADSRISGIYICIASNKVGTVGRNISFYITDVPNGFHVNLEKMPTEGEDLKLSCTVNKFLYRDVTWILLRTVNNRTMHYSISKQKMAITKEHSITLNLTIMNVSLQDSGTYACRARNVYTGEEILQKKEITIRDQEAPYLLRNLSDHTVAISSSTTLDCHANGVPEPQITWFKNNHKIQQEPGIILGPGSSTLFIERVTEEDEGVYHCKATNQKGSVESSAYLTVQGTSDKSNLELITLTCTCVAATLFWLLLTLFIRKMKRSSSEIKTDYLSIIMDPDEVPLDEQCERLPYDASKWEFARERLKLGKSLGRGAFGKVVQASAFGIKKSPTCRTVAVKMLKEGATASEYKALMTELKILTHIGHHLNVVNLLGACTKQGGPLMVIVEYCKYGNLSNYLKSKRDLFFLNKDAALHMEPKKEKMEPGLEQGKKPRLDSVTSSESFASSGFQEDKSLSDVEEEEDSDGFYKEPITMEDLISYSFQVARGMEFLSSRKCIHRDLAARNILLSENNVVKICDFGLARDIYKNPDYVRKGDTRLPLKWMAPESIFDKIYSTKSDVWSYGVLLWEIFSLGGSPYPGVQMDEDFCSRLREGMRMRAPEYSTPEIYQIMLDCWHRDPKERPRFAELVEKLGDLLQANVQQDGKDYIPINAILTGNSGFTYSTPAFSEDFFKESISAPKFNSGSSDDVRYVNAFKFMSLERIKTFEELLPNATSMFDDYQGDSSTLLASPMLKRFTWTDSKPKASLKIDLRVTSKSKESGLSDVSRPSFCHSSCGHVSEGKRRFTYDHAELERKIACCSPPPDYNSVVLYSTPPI", "experiment": "Tyrosine kinase inhibition", "format": "biochemical", "details": "read-out: IC50, FLT1"}, "Single-dose toxicity": {"experiment": "Single-dose toxicity", "format": "in vivo, Beagle dogs", "details": "single oral dose 500 and 1000 mg/kg", "description": "mg/kg. The maximum tolerated dose (MTD) was 500 mg/kg. Gastrointestinal, hepatic, and immune system toxicity may have contributed to the rat deaths.\n2.2. Dose expansion phase\n[…] To investigate the efficacy of HA121- 28 tablets in patients with advanced solid tumors.\nThis study is a single- arm, open- label, dose-escalation, and dose-expansion phase 1 clinical studywith single and multiple dosing."}, "EphA1": {"target": "EphA1 (Homo sapiens, UniProt P21709)", "sequence (P21709 26-976)": "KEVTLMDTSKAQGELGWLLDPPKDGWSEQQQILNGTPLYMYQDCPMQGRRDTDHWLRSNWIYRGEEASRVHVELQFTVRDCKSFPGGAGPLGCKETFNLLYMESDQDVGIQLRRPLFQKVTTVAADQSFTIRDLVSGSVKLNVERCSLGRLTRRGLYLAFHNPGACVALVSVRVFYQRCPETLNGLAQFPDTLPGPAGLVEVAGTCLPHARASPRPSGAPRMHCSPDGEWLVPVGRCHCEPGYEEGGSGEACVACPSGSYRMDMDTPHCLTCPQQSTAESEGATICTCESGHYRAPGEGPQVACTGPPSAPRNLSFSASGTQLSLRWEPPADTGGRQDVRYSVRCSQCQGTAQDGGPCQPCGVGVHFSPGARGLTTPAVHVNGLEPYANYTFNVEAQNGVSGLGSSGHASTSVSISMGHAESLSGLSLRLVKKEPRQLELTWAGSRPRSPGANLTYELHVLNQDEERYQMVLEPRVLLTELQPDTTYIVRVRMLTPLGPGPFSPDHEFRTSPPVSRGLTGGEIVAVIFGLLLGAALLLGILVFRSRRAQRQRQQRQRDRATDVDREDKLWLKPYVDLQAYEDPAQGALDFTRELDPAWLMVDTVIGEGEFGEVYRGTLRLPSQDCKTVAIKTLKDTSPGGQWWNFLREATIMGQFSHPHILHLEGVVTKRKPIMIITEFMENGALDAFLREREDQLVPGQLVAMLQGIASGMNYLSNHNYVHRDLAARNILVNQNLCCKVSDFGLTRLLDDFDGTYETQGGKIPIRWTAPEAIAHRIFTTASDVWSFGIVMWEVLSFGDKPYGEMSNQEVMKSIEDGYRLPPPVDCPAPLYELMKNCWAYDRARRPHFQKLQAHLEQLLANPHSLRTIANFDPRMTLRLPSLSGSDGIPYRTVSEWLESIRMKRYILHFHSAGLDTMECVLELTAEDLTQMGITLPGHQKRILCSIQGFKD", "experiment": "Tyrosine kinase inhibition", "format": "biochemical"}, "[4]": {"tested_on": "EGFR signaling in tumor tissue", "experiment": "PK/PD in plasma and tumor tissue of tumor-bearing mice", "format": "in vivo", "details": "after a single dose, 25 and 50 mg/kg"}, "KDR": {"target": "KDR (Homo sapiens, UniProt P35968)", "experiment": "Tyrosine kinase inhibition", "format": "biochemical"}, "8305C cells": {"tested_on": "8305C cells", "experiment": "Tumor cell proliferation in vitro", "format": "cell-based"}, "Plasma protein binding [5]": {"experiment": "Plasma protein binding", "format": "in vitro ADME", "details": "rats"}, "[6]": {"tested_on": "human melanoma A375 tumors", "experiment": "A375 tumors in nude mice", "format": "in vivo"}, "Plasma protein binding [7]": {"experiment": "Plasma protein binding", "format": "in vitro ADME", "details": "humans"}, "Plasma protein binding [8]": {"experiment": "Plasma protein binding", "format": "in vitro ADME", "details": "monkeys"}, "SRC": {"target": "SRC (Homo sapiens, UniProt P12931)", "sequence (P12931 whole entry)": "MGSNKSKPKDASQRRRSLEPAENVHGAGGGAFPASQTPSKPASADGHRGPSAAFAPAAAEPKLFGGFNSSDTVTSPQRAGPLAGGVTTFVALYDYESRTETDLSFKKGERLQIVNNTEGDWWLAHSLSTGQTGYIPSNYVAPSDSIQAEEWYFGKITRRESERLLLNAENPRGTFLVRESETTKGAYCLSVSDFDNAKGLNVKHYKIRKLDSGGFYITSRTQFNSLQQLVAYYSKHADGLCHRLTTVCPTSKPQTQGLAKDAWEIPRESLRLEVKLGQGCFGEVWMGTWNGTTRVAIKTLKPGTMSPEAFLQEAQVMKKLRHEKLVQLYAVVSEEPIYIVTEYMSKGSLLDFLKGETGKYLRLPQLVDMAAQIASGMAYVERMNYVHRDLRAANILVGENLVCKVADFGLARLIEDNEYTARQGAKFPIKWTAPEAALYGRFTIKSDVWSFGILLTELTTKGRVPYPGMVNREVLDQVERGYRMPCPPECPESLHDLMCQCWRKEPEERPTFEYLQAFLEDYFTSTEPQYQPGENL", "experiment": "Tyrosine kinase inhibition", "format": "biochemical"}, "CHL": {"tested_on": "CHL", "experiment": "CHL test", "format": "cell-based"}, "BTK": {"target": "BTK (Homo sapiens, UniProt Q06187)", "sequence (Q06187 whole entry)": "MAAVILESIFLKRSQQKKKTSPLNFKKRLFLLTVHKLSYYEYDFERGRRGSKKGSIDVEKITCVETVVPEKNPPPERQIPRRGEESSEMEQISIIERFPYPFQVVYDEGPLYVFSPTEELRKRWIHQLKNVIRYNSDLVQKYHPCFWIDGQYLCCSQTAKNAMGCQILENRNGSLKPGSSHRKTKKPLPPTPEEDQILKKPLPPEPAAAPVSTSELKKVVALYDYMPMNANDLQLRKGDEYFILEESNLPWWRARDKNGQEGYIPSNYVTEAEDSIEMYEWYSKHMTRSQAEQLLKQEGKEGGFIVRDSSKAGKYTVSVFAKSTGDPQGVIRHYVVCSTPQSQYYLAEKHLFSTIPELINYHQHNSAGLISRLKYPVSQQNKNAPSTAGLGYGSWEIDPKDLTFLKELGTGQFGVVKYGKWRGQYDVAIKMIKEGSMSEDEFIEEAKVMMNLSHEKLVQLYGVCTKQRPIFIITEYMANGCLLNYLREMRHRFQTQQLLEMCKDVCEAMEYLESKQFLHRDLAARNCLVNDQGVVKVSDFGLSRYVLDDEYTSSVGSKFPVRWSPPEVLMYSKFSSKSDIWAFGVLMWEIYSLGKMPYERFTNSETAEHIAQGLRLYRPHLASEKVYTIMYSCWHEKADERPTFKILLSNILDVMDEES", "experiment": "Tyrosine kinase inhibition", "format": "biochemical"}, "[9]": {"tested_on": "human thyroid cancer TT tumors", "experiment": "TT tumors in nude mice", "format": "in vivo", "details": "for RTV ±SD / T/C / Terminal Tumor Volume: TT tumors", "source_text": "(§1) was higher than that of vandetanib .\nas §1\nTable S15. Efficacy of HA121-28 on human thyroid cancer TT tumors"}, "Mouse micronucleus test": {"experiment": "Mouse micronucleus test", "details": "in vivo mouse micronucleus test"}},
  "note": "Read-outs that look alike come from different tables or passages of the source. Marks after values point to notes of the source that are not given here.",
  "data": [
    {"smiles": "COc1cc2c(Nc3ccc(Br)cc3F)ncnc2cc1OCCCCN(C)C.Cl.Cl", "note": "[HA121-28, N-(4-bromo-2-fluorophenyl)-7-(4-(dimethylamino)butoxy)-6-methoxy quinazolin-4-amine dihydrochloride]", "values": [
      {"measurement": "respiratory function and neurological behavior", "setting": "[1]", "value": "did not affect"},
      {"measurement": "IC50", "setting": "FGFR1-3; FGFR1, read-out: IC50, FGFR1", "value": 32.3, "unit": "nM"},
      {"measurement": "IC50", "setting": "FGFR1-3; FGFR2, read-out: IC50, FGFR2", "value": 20.4, "unit": "nM"},
      {"measurement": "IC50", "setting": "FGFR1-3; FGFR3, read-out: IC50, FGFR3", "value": 23.1, "unit": "nM"},
      {"measurement": "no observed adverse effect level (NOAEL)", "setting": "[2]; 28-day, SD rats", "value": 15, "unit": "mg/kg"},
      {"measurement": "highest non-severely toxic dose (HNSTD)", "setting": "[2]; oral gavage, four consecutive weeks", "value": 15, "unit": "mg/kg"},
      {"measurement": "number of metabolites found in plasma", "setting": "Metabolites in plasma", "value": 4},
      {"measurement": "IC50", "setting": "FGFR4", "value": 953, "unit": "nM"},
      {"measurement": "IC50", "setting": "BLK", "value": 201, "unit": "nM"},
      {"measurement": "content at 72 h post-dose as fraction of distribution peak", "setting": "[3]; adrenal glands", "value": "1/8"},
      {"measurement": "tissue AUC0-72h exposure relative to plasma", "setting": "[3]; bone marrow", "value": "≈ 1.3 times plasma"},
      {"measurement": "tissue AUC0-72h exposure relative to plasma", "setting": "[3]; brain, adipose tissue, muscles", "value": "3~9 times plasma"},
      {"measurement": "tissue AUC0-72h exposure relative to plasma", "setting": "[3]; liver, kidneys, ovaries", "value": "≈ 100 times plasma"},
      {"measurement": "time of distribution peak", "setting": "[3]; liver, stomach, intestines", "value": 0.5, "unit": "h"},
      {"measurement": "time of distribution peak", "setting": "[3]; most tissues", "value": 4, "unit": "h"},
      {"measurement": "tissue AUC0-72h exposure relative to plasma", "setting": "[3]; spleen, lungs, adrenal glands", "value": "≈ 200 times plasma"},
      {"measurement": "time of distribution peak", "setting": "[3]; testes", "value": 24, "unit": "h"},
      {"measurement": "content at 72 h post-dose as fraction of distribution peak", "setting": "[3]; uterus", "value": "1/5"},
      {"measurement": "tissue AUC0-72h exposure relative to plasma", "setting": "[3]; uterus, testes, thymus, intestines, thyroid, heart, stomach", "value": "20~60 times plasma"},
      {"measurement": "mouse matrigel angiogenesis", "setting": "matrigel angiogenesis", "value": "able to inhibit"},
      {"measurement": "IC50", "setting": "A431 cells", "value": "775 ± 76.7", "unit": "nM"},
      {"measurement": "IC50", "setting": "A498 cells", "value": "858 ± 17.9", "unit": "nM"},
      {"measurement": "IC50", "setting": "A375 cells", "value": "716 ± 154", "unit": "nM"},
      {"measurement": "IC50", "setting": "FLT-1", "value": 20.9, "unit": "nM"},
      {"measurement": "MTD", "setting": "Single-dose toxicity", "value": 1000, "unit": "mg/kg"},
      {"measurement": "IC50", "setting": "EphA1", "value": 86.9, "unit": "nM"},
      {"measurement": "onset of inhibition of EGFR signaling pathway", "setting": "[4]", "value": 2, "unit": "h"},
      {"measurement": "IC50", "setting": "KDR", "value": 35.7, "unit": "nM"},
      {"measurement": "IC50", "setting": "8305C cells", "value": "623 ± 80.3", "unit": "nM"},
      {"measurement": "plasma protein binding rate", "setting": "Plasma protein binding [5]", "value": "92.4±1.28", "unit": "%"},
      {"measurement": "RTV ±SD", "setting": "[6]; 12.5 mg/kg", "value": "11.2±4.7"},
      {"measurement": "T/C", "setting": "[6]; 12.5 mg/kg", "value": 54.6, "unit": "%"},
      {"measurement": "Terminal Tumor Volume", "setting": "[6]; 12.5 mg/kg", "value": "1860.7±1044.5", "unit": "mm^3"},
      {"measurement": "RTV ±SD", "setting": "[6]; 25 mg/kg", "value": "8.7±5.9"},
      {"measurement": "T/C", "setting": "[6]; 25 mg/kg", "value": 42.6, "unit": "%"},
      {"measurement": "Terminal Tumor Volume", "setting": "[6]; 25 mg/kg", "value": "1329.3±1001.3* mm^3"},
      {"measurement": "RTV ±SD", "setting": "[6]; 50 mg/kg", "value": "5.7±3.1"},
      {"measurement": "T/C", "setting": "[6]; 50 mg/kg", "value": 27.7, "unit": "%"},
      {"measurement": "Terminal Tumor Volume", "setting": "[6]; 50 mg/kg", "value": "879.7±405.8** mm^3"},
      {"measurement": "plasma protein binding rate", "setting": "Plasma protein binding [7]", "value": "90.1±1.05", "unit": "%"},
      {"measurement": "plasma protein binding rate", "setting": "Plasma protein binding [8]", "value": "92.5±0.331", "unit": "%"},
      {"measurement": "IC50", "setting": "SRC", "value": 65.8, "unit": "nM"},
      {"measurement": "genetic toxicity", "setting": "CHL", "value": "negative"},
      {"measurement": "IC50", "setting": "BTK", "value": 446, "unit": "nM"},
      {"measurement": "in vivo anti-tumor effect", "setting": "[9]; 50 mg/kg", "value": "tumor shrinkage was observed"},
      {"measurement": "RTV ±SD", "setting": "[9]; 25 mg/kg", "value": "2.1±0.6"},
      {"measurement": "T/C", "setting": "[9]; 25 mg/kg", "value": 33.8, "unit": "%"},
      {"measurement": "Terminal Tumor Volume", "setting": "[9]; 25 mg/kg", "value": "307.4±69.5** mm^3"},
      {"measurement": "RTV ±SD", "setting": "[9]; 50 mg/kg", "value": "0.8±0.2"},
      {"measurement": "T/C", "setting": "[9]; 50 mg/kg", "value": 13.6, "unit": "%"},
      {"measurement": "Terminal Tumor Volume", "setting": "[9]; 50 mg/kg", "value": "131.9±66.5** mm^3"},
      {"measurement": "RTV ±SD", "setting": "[9]; 75 mg/kg", "value": "0.5±0.2"},
      {"measurement": "T/C", "setting": "[9]; 75 mg/kg", "value": 8.7, "unit": "%"},
      {"measurement": "Terminal Tumor Volume", "setting": "[9]; 75 mg/kg", "value": "86.9±40.0** mm^3"},
      {"measurement": "genetic toxicity", "setting": "Mouse micronucleus test", "value": "negative"}
    ]}
  ]
}
